In patent US20250186461A1, “METHODS AND COMPOSITIONS FOR TREATING AND/OR PREVENTING HERNIAS” (Northwestern University, priority 2023, published 2025):
Entries after “also recorded” stand apart in the source; their conditions may differ.

Columns and labels:
Arom^hum mice [1] = assay: Hernia prevention in Arom^hum mice (treatment before hernia formation); assay type: in vivo, mouse; details: male Arom^hum mice; 12-week treatment started at 3-3.5 weeks of age (before hernia formation); vs placebo
Description: Our study design is robust, utilizing Arom^hum mice with endpoints examined after treatment with placebo or anti-P4/PGR, and compared to those of WT littermates using 2 different tissue sites: UAM and LAM (normal or weakened/herniated). Inguinal hernia affects predominantly men vs. women (10:1 ratio). Inguinal hernias are unique to male mice and aged men. […] Here, we will focus on the effects of P4/PGR action on skeletal muscle integrity and hernia formation in males, and our work will be carried out in male mice or tissues primarily from men over 50 years of age. We will use mouse or human tissues or primary cells to closely recapitulate in vivo pathology.
(§1) The mouse scrotum is connected to the peritoneal cavity with a narrow funicular (or inguinal) canal, with walls composed of LAM tissue. Structurally normal LAM tissue is essential to maintain the tone of this canal and prevent herniation of the bowel.
Experiment 1a1: Does the addition of P4 to E2 treatment accelerate LAM fibrosis and hernia formation in WT mice? […] We hypothesize that this effect is primarily mediated by the E2 induction of PGR expression in LAM fibroblasts. […] If this were true, the addition of pharmacologic quantities of P4 (75 mg/pellet for 12-week release)^73 to E2 (0.3 mg/pellet for 12-week release)^23-25 in WT mice should accelerate this phenotype. […] See Statistical Methods above for sample size calculation. Hernia surface area will be measured using a digital caliper and calculated as previously described (length×width)^19. At the designated endpoints, LAM and UAM (control) from each mouse will be resected, with one-half of the tissue snap-frozen in liquid nitrogen, and the other half fixed in 4% phosphate-buffered paraformaldehyde for histological and IHC analyses (see below). All tissue and serum (for P4/E2 levels) samples will be collected between 10:00 AM and noon to avoid possible variability in daily hormone fluctuations. […] We will continue to complete the rest of the proposed study in this subaim. We will also assess whether and extent of muscle fibrosis and atrophy will be induced in P4+E2-induced large hernias and E2-induced small hernias. […] P4 antagonists show various levels of selectivity for PGR. […] The use of 3 distinct P4/PGR antagonists with different properties will establish the role of PGR in muscle fibrosis and hernia.
Hernias will be classified as small, medium, or large if the bulging area through muscle tissue is 125-175 mm^2, 175-225 mm^2, or >225 mm^2, respectively. […] We will assess whether muscle fibrosis, atrophy, and hernia are arrested or reversed. […] Hernia size will be measured. After completion of treatment, the mice will be dissected, and LAM, UAM (control), and serum will be collected. A total of 100 mg of tissue (LAM and UAM) will be obtained and frozen for measurement of tissue E2/P4.

WT mice = assay: E2/P4-induced hernia formation in WT mice; assay type: in vivo, mouse; details: WT male mice
Description: as §1, with “All placebo-treated Arom^hum mice developed hernias starting from 5 weeks of age. None of the WT littermates developed hernias. […] The” for “The”
Experiment 1a1: Does the addition of P4 to E2 treatment accelerate LAM fibrosis and hernia formation in WT mice? It was shown that treatment of male WT mice with extremely high doses of systemic estrogens starting around or after the onset of puberty caused inguinal hernia in one third to half of these animals^23-25. We hypothesize that this effect is primarily mediated by the E2 induction of PGR expression in LAM fibroblasts. Male mice have readily detectable P4 levels in the circulation and LAM tissue to activate PGR in LAM fibroblasts (FIG. 6). If this were true, the addition of pharmacologic quantities of P4 (75 mg/pellet for 12-week release)^73 to E2 (0.3 mg/pellet for 12-week release)^23-25 in WT mice should accelerate this phenotype. Our ongoing preliminary study, whereby a 6-week treatment with P4+E2 induced large inguinal hernia in all WT mice (FIG. 7A), supports the following experiment. Long-term (8 weeks or longer) treatment with E2 only is anticipated to cause hernias in up to half of WT mice based on previous findings^23-25. We will determine whether P4+E2 treatment over 12 weeks will give rise to larger hernias in a higher number of mice compared with E2-only treatment. […] See Statistical Methods above for sample size calculation. Hernia surface area will be measured using a digital caliper and calculated as previously described (length×width)^19. At the designated endpoints, LAM and UAM (control) from each mouse will be resected, with one-half of the tissue snap-frozen in liquid nitrogen, and the other half fixed in 4% phosphate-buffered paraformaldehyde for histological and IHC analyses (see below). […]

[2] = test system: PGR expression in LAM fibroblasts of Arom^hum mice; assay: E2/ESR1-induced PGR expression (mRNA, immunoblotting) in LAM fibroblasts; assay type: cell-based, mouse; details: for E2-induced expression of Pgr (mRNA): 100 nM ICI 182,780 or 10 μM MPP, pretreated 2 h, E2 10 nM
Experimental: (A) Time course of E2 (10 nM) effect on PGR protein expression in LAM fibroblasts of Arom^hum mice. […] (E) PGR protein levels in LAM primary fibroblasts from WT and Arom^hum mice after treatment with ICI with or without E2 for 48 h. Cells were pretreated with ICI or MPP for 2 h before adding E2. Data are representative of 3 independent experiments; B-actin serves as a loading control for (A) and (E). Vch: vehicle. […] MPP: A selective ESR1 antagonist.
Breast cancer cell line T47D served as a positive control.

Arom^hum mice [3] = details: earlier work of the applicant (refs 19, 22); cited from earlier work
Arom^hum mice [4] = assay: Reversal of existing (large) hernias in Arom^hum mice; assay type: in vivo, mouse; details: Arom^hum mice with large hernias; 3.75 mg/pellet, 12-week subcutaneous release; n=10-11
Description: Arrows in panels B and D point to hernias.
The scrotal area in WT mice is under ˜125 mm^2. We classified hernias as small, medium, or large based on the bulging area through muscle tissue of 125-175 mm^2, 175-225 mm^2, or ≥225 mm^2, respectively. […] Since long-term anti-E2/ESR1 treatments cause significant side effects (e.g., sexual dysfunction or osteoporosis), we mechanistically explored the specific and major downstream effectors of E2/ESR1 signaling leading to muscle fibrosis. […] The key observations that support the role of P4/PGR signaling are summarized below.

Arom^hum mice [5] = details: previously shown (ref 19); cited from earlier work

C[C@]12CCC(=O)C[C@@H]1CC[C@@H]1[C@@H]2CC[C@]2(C)[C@@H](O)CC[C@@H]12 [DHT]
hernia formation / hernia size (Arom^hum mice [1]): None prevented hernia formation

C[C@]12CC[C@@H]3c4ccc(O)cc4CC[C@H]3[C@@H]1CC[C@@H]2O [E2, Estradiol]
hernia size induced (WT mice; treatment started at the age of 9 weeks): 125-175 mm2

Cc1cc(-c2ncc(CC(=O)Nc3ccc(-c4cnccn4)cn3)cc2C)ccn1 [LGK974]
hernia formation / hernia size (Arom^hum mice [1]): None prevented hernia formation

Cc1c(-c2ccc(O)cc2)nn(-c2ccc(O)cc2)c1-c1ccc(OCCN2CCCCC2)cc1 [MPP]
E2-induced expression of Pgr (mRNA) [2]: significantly decreased E2-induced expression of Pgr

CC(=O)[C@H]1CC[C@H]2[C@@H]3CCC4=CC(=O)CC[C@]4(C)[C@H]3CC[C@]12C [P4, Progesterone]
hernia formation (WT mice; treatment started at 9-10 weeks of age, up to 12 weeks): did not induce any hernia formation

C[C@]12CC[C@@H]3c4ccc(O)cc4C[C@@H](CCCCCCCCC[S+]([O-])CCCC(F)(F)C(F)(F)F)[C@H]3[C@@H]1CC[C@@H]2O (some centres unmarked) [fulvestrant]
E2-induced expression of Pgr (mRNA) [2]: significantly decreased E2-induced expression of Pgr
protein levels of 3 PGR isoforms (immunoblotting) ([2]; LAM fibroblasts of WT and Arom^hum mice, ICI with or without E2 for 48 h): blocked
reversal of existing hernias (Arom^hum mice [3]): reversed existing hernias and restored normal anatomy in Arom^hum mice
reversal of large hernias, LAM fibrosis and muscle atrophy (Arom^hum mice [4]): reversed large hernias and restored normal anatomy and reversed LAM tissue fibrosis and muscle atrophy; also recorded: successfully reversed them to normal size, rescued LAM fibrosis, reversed muscle atrophy, and restored normal anatomy

N#Cc1ccc(C(c2ccc(C#N)cc2)n2cncn2)cc1 [letrozole, Letrozole]
reversal of existing hernias (Arom^hum mice [3]): reversed existing hernias and restored normal anatomy in Arom^hum mice
prevention of LAM fibrosis and hernia formation (Arom^hum mice [5]): entirely prevents this phenotype
